Experimental data: US11466020B2, “Compounds and compositions for inhibition and elimination of Zika infection and uses for same” (Cornell University, priority 2017, dated 2022)
Where a name gives a salt, the structure may show the parent alone.

Legend:
ZIKV (MR766 strain) [1] = test: qRT-PCR of total ZIKV vRNA in supernatant of hNPC cultures; format: cell-based, Zika virus; conditions: 72 h after infection
Method: (§1) (A) Scheme of high content chemical screen. (B) Chemical structure of hit compounds. (C) Inhibitory curve and IC50 of HH or AQ on hNPCs (n=6). (D-H) Immunocytochemistry analysis (D), the quantification of the infection rate (E), the quantification of proliferation rate (F), the quantification of cell apoptosis rate (G) and the normalized cell viability (H) of hNPCs at 72 h after ZIKV (MR 766 strain) infection with or without drug treatment. Scale bars, 100 μm. The ZIKV infection rate is defined as the percentage of ZIKV E^+ cells. The proliferation rate is defined as the percentages of Ki67^+ cells. The cell apoptosis rate was defined as the percentage of cleaved-Caspase 3/CAS3^+ cells. The normalized cell viability was calculated by dividing the total cell number of each condition by the total cell number under mock infection conditions. (n=6). […] (K) Quantification of ZIKV infectious particles produced by ZIKV-infected hNPCs with or without compound treatment by the Vero cell reinfection assay. […] (M and N) Immunocytochemistry analysis (M) and quantification of the infection rate (N) of hNPCs at 72 h after ZIKV (PRVABC59 strain) infection with or without drug treatment (n=6). Scale bars, 100 μm. p values were calculated by one-way repeated measures ANOVA with a Bonferroni test for multiple comparisons. *p<0.05, **p<0.01 and ***p<0.001. […]

ZIKV (MR766 strain) [2] = test: Vero cell re-infection assay (infectious ZIKV in hNPC supernatant); format: cell-based, Zika virus; conditions: supernatant of hNPC cultures, 72 h after infection
Method: as §1

ZIKV (PRVABC59 strain) = test: ZIKV PRVABC59 infection of hNPCs (immunocytochemistry); format: cell-based, Zika virus; conditions: MOI=0.125, 72 h
Method: as §1

hNPCs = test: hNPC viability, proliferation, apoptosis and identity; format: cell-based, human; conditions: for ZIKV induced growth arrest or apoptosis of hNPCs: 72 h after ZIKV (MR766) infection, vs DMSO
Method: (A) Scheme of high content chemical screen. (B) Chemical structure of hit compounds. (C) Inhibitory curve and IC50 of HH or AQ on hNPCs (n=6). (D-H) Immunocytochemistry analysis (D), the quantification of the infection rate (E), the quantification of proliferation rate (F), the quantification of cell apoptosis rate (G) and the normalized cell viability (H) of hNPCs at 72 h after ZIKV (MR 766 strain) infection with or without drug treatment. Scale bars, 100 μm. The ZIKV infection rate is defined as the percentage of ZIKV E^+ cells. The proliferation rate is defined as the percentages of Ki67^+ cells. The cell apoptosis rate was defined as the percentage of cleaved-Caspase 3/CAS3^+ cells. The normalized cell viability was calculated by dividing the total cell number of each condition by the total cell number under mock infection conditions. (n=6). (I) qRT-PCR analysis to monitor the total ZIKV vRNA in the supernatant of hNPC cultures at 72 h after ZIKV infection with or without drug treatment. (J) Vero cell reinfection assay to monitor the ZIKV infectious particles in the supernatant of hNPC cultures with or without drug treatment. To perform the Vero cell reinfection assay, hNPCs at 72 h after ZIKV infection were washed three times and changed to drug free medium for an additional 24 h. Vero cells were infected with the supernatant collected from hNPCs for 2 h and changed to virus free medium for an additional 24 h. Vero cells were stained with antibody against ZIKV E and DAPI. Scale bars, 200 μm. (n=3). (K) Quantification of ZIKV infectious particles produced by ZIKV-infected hNPCs with or without compound treatment by the Vero cell reinfection assay. (L) Heatmap analysis of mock-infected hNPCs treated with DMSO (mock); mock infected hNPCs treated with 25 μM HH (HH), mock-infected hNPCs treated with 15 μM AQ (AQ), ZIKV (MR766 strain, MOI=0.125) infected hNPCs treated with DMSO (ZIKV+DMSO); ZIKV-infected hNPCs treated with 25 μM HH (ZIKV+HH), and ZIKV-infected hNPCs treated with 15 μM AQ (ZIKV+AQ). […] (M and N) Immunocytochemistry analysis (M) and quantification of the infection rate (N) of hNPCs at 72 h after ZIKV (PRVABC59 strain) infection with or without drug treatment (n=6). Scale bars, 100 μm. p values were calculated by one-way repeated measures ANOVA with a Bonferroni test for multiple comparisons. *p<0.05, **p<0.01 and ***p<0.001.
(A) Scheme to evaluate the elimination of ZIKV. At day 0, hNPCs were infected with ZIKV for 2 h. After removal of ZIKV infection medium, hNPCs were treated with drug candidates. At day 3, the culture medium was changed to fresh medium without compounds. The cells were maintained in drug-free culture until day 6 and used for immunohistochemistry and qRT-PCR. (B and C) Inhibitory curve and IC50 of HH calculated based on the infection rate (B) and normalized cell viability (C) (n=6). (D and E) Immunocytochemistry analysis (D) and the quantification of infection rate, cell apoptosis rate, and total cell number (E) of hNPCs on day 3 and day 6. Cells was fixed and stained with cleaved Caspase-3 (CAS3), ZIKV E and DAPI. Scale bars, 100 μm. (F) qRT-PCR analysis to monitor the total ZIKV vRNA in the supernatant of hNPC cultures on day 6. Scale bars, 200 μm. (n=3). (G) Vero cell reinfection assay to monitor the infective ZIKV vRNA in the supernatant of hNPC cultures at day 6 after ZIKV infection. Scale bars, 200 μm. (n=3). (H) Quantification of ZIKV infectious particles produced by ZIKV-infected hNPCs at day 6 by the Vero cell reinfection assay. (I) hNPCs with or without ZIKV infection treated with HH maintain hNPC marker expression and differentiation capacity. hNPCs with or without ZIKV MR766 infection were treated with 25 μM HH or DMSO for 3 days and then stained for SOX2, NESTIN and with DAPI. hNPCs with or without ZIKV infection and treated with HH or DMSO for 3 days were differentiated to cortical neurons. The cortical neurons were then fixed and stained for MAP2, TUJ1 and with DAPI. Scale bars, 100 μm. (n=3). […]

| Structure (SMILES) | production of ZIKV viral RNA (vRNA), qRT-PCR (ZIKV (MR766 strain) [1]) | production of infectious ZIKV, Vero cell re-infection assay (ZIKV (MR766 strain) [2]) | ZIKV (PRVABC59) infection of hNPCs (ZIKV (PRVABC59 strain); 25 μM HH) | ZIKV induced growth arrest or apoptosis of hNPCs (hNPCs) | cell death rate and total cell number (hNPCs; ZIKV infected hNPCs, day 6) | ZIKV-induced loss of cell viability (hNPCs; dose-dependent, compound applied 2 h post infection) | expression of neural progenitor markers SOX2 and NESTIN and differentiation capacity (hNPCs; hNPCs with or without ZIKV infection treated for 3 days) | cytotoxicity to hNPCs (hNPCs; highest dose of 100 μM) | ZIKV (PRVABC59) infection of hNPCs (ZIKV (PRVABC59 strain); 15 μM AQ) |
| --- | --- | --- | --- | --- | --- | --- | --- | --- | --- |
| CN1CCC2=C[C@H](O)[C@H]3OC(=O)c4cc5c(cc4[C@H]3[C@@H]21)OCO5 [HH, hippeastrine hydrobromide] | significantly suppressed | significantly suppressed | effectively inhibited ZIKV infection | blocked ZIKV induced growth arrest or apoptosis | comparable to control mock infection conditions | successfully rescued | maintained the expression of neural progenitor markers | no obvious cytotoxicity | – |
| CCN(CC)Cc1cc(Nc2ccnc3cc(Cl)ccc23)ccc1O [AQ, amodiaquine dihydrochloride dihydrate] | significantly suppressed | significantly suppressed | – | blocked ZIKV induced growth arrest or apoptosis | – | – | – | – | effectively inhibited ZIKV infection |
